Tests used:
hSSTR5 = molecular target: T1, hSSTR5 (Homo sapiens, UniProt P35346); test: SSTR5 antagonistic activity in vitro by calcium flow detection (hSSTR5-CHO-Gα16 cells); assay type: cell-based; settings: for IC50: hSSTR5-CHO-Gα16 cells, 100 nM Somatostatin-14 agonist, Fluo-4 fluorescence 525 nm; for SSTR5 antagonistic activity (in words): summary of Table 1
T1 construct: expressed in transfected cells; host or cells: CHO cells co-expressing Gα16 (hSSTR5-CHO-Gα16)
Description: (§1) Testing SSTR5 antagonistic activity in vitro by Calcium flow detection method Experimental principle: After the receptor binds to the ligand and is activated, it can cause the activation of Gα16 protein, which further activates phospholipase C(PLC) to produce IP3 and DAG. IP3 can bind to the IP3 receptors on the endoplasmic reticulum and mitochondria in the cell, thereby causing the release of intracellular calcium. Therefore, measuring the changes in intracellular calcium can be used in the method to detect the activation state of hSSTR5. Fluo-4/AM is a calcium fluorescent probe indicator used to measure calcium ions. As a non-polar lipid-soluble compound, after it enters the cell, the AM group therein dissociates, and Fluo-4 is released under the action of cellular lipase; because Fluo-4 is a polar molecule and is not easy to pass through the lipid bilayer membrane, it can keep Fluo-4 in the cell fora longtime. Finally, the level of Ga protein activation can be reflected by measuring the intensity of the excited fluorescence. Somatostatin, an agonist of SSTR5, can activate SSTR5 receptors and greatly increase the calcium flow response. The SSTR5 antagonist to be tested can inhibit the agonist activity of the SSTR5 receptor and reduce the calcium increased flow response of the receptor stimulated by the agonist.
(§2) • (1) The hSSTR5-CHO-Gα16 and mSSTR5-CHO-Gα16 cell lines stably expressing hSSTR5 or mSSTR5 receptors were seeded at a density of 30,000/well in a 96-well plate and cultured in a 37° C. incubator overnight. • (2) The cells was aspirated off the culture medium, added with freshly prepared dye at 40 μL/well, and incubated in a 37° C. incubator for 45 minutes. • (3) After the dye was aspirated and discarded, the cells were washed with freshly prepared calcium buffer and the culture medium was replaced with 50 μL of calcium buffer. • (4) The SSTR5 agonist Somatostatin-14 was diluted and mixed evenly with calcium buffer. • (5) Detection was performed using a Flextation instrument. Starting from the 15th second, 25 μL of the pre-prepared agonist was automatically added by the instrument, and the fluorescence value at 525 nm was read.

mSSTR5 = molecular target: T2, mSSTR5 (Mus musculus, UniProt O08858); test: SSTR5 antagonistic activity in vitro by calcium flow detection (mSSTR5-CHO-Gα16 cells); assay type: cell-based; settings: 100 nM Somatostatin-14 agonist, Fluo-4 fluorescence 525 nm
T2 construct: expressed in transfected cells; host or cells: CHO cells co-expressing Gα16 (mSSTR5-CHO-Gα16)
T2 sequence (O08858 1-362): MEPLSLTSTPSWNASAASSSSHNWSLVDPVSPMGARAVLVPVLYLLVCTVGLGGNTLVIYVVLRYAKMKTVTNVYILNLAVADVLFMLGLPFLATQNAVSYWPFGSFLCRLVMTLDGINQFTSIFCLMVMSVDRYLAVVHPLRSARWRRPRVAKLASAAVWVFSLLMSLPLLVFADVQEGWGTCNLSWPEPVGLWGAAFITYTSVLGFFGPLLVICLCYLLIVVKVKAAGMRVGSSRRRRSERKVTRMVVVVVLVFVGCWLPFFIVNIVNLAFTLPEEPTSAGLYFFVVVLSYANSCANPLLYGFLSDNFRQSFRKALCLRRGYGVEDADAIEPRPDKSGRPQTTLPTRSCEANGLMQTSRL
Description: as §1, §2

C57BL/6J mice = test: Gallbladder emptying promotion experiment; assay type: in vivo, mouse; settings: 30 mg/kg by gavage, egg yolk 1 h later, gallbladder removed after 15 min, versus control group, FIG. 2
Method: Experimental method: Before the experiment, 8-10 weeks old C57BL/6J mice were fasted for 17-18 hours and allowed to drink water freely. The mice were then divided into groups according to weight (n=4), and were gavaged with an aqueous solution of the compound prepared in Example 34 (30 mg/kg) or an equal volume of distilled water (control group), with a dosing volume of 10 mL/kg. At one hour after administration, 200 microliters of egg yolk were orally administered to the mice. After 15 minutes, the mice were killed by dislocation and dissected, and the gallbladder was removed and the bile was squeezed out and weighed with an analytical balance.

SSTR5 = test: Calcium flow response to the SSTR5 agonist (choice of agonist concentration); assay type: cell-based; settings: CHO-Gα16 cells expressing SSTR5, cell line (h or m) not stated
Description: as §1, with “agonist. […]” for “agonist.”

T1 sequence (P35346 whole entry): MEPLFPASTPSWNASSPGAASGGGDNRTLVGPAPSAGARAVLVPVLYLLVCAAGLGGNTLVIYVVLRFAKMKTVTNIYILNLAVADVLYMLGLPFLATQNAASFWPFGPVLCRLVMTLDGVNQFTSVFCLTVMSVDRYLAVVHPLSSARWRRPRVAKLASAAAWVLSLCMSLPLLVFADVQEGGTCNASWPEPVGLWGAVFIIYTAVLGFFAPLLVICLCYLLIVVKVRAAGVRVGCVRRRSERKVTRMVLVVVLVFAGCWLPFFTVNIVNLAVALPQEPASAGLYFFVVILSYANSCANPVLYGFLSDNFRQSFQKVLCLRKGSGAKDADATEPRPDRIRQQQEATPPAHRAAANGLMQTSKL

Row | Compound | IC50 (hSSTR5) | SSTR5 antagonistic activity (in words) (hSSTR5) | IC50 (mSSTR5) | emptying of the mouse gallbladder (bile weight) (C57BL/6J mice) | EC50 (SSTR5)
1 | CCOc1cc(CN2CCN(C3CCN(S(=O)(=O)c4ccc(OC(F)(F)F)cc4)CC3)CC2)cc(OCC)c1-c1ccc(F)cc1 [Example 12, 1-((2,6-diethoxy-4′-fluoro-[1,1′-biphenyl]-4-yl)methyl)-4-(1-((4-(trifluoromethoxy)phenyl)sulfonyl)piperidin-4-yl)piperazine] | 0.1 to 50 nM | potent SSTR5 antagonistic activity | 0.1 to 50 nM |  | 
2 | CCOc1cc(CN2CCC(C3CN(S(=O)(=O)c4ccc(OC(F)(F)F)cc4)C3)CC2)cc(OCC)c1-c1ccc(F)cc1 [Example 14] | 0.1 to 50 nM |  | 0.1 to 50 nM |  | 
3 | CCOc1cc(CN2CCC3(CC2)CN(c2ccc(C(=O)O)cc2F)C3)cc(OCC)c1-c1ccc(F)cc1 [Example 27, 4-(7-((2,6-diethoxy-4′-fluoro-[1,1′-biphenyl]-4-yl)methyl)-2,7-diazaspiro[3.5]nonan-2-yl)-3-fluorobenzoic acid] | 0.1 to 50 nM | potent SSTR5 antagonistic activity | 0.1 to 50 nM |  | 
4 | CCOc1cc(CN2CCC3(CC2)CN(c2ccc(C(=O)O)c(OC)c2)C3)cc(OCC)c1-c1ccc(F)cc1 [Example 28, 4-(7-((2,6-diethoxy-4′-fluoro-[1,1′-biphenyl]-4-yl)methyl)-2,7-diazaspiro[3.5]nonan-2-yl)-2-methoxybenzoic acid] | 0.1 to 50 nM | potent SSTR5 antagonistic activity | 0.1 to 50 nM |  | 
5 | CCOc1cc(CN2CCC3(CC2)CN(c2ccc(C(=O)O)c(F)c2)C3)c(C2CC2)cc1C [Example 34, 4-(7-(2-cyclopropyl-5-ethoxy-4-methylbenzyl)-2,7-diazaspiro[3.5]nonan-2-yl)-2-fluorobenzoic acid] |  |  |  | significantly promote the emptying of the mouse gallbladder | 
6 | Somatostatin-14 |  |  |  |  | 9.7 nM
